Molecules are shown by their SMILES.

One may read the Ki as the dissociation constant of the complex between target and ligand, obtained from inhibition or displacement.

The first experiment has as its target T1, dopamine D4 receptor (Homo sapiens, UniProt P21917).
T1 construct: expressed in transfected cells; host or cells: CHO (Chinese Hamster Ovary) cells, D4-CHO, crude membranes
T1 sequence (P21917 1-419): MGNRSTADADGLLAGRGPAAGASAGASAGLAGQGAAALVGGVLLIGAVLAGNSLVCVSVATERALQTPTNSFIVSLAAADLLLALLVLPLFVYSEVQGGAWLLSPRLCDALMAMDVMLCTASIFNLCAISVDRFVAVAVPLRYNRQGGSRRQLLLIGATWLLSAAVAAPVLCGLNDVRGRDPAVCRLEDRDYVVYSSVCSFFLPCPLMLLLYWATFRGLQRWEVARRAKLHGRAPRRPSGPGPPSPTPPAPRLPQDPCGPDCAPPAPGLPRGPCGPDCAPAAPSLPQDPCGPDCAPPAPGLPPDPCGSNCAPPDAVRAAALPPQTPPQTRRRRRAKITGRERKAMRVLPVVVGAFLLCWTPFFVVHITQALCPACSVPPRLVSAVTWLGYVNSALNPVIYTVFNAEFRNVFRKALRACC
Nature of the experiment: binding behaviour at the dopamine D4 receptor, [3H]-spiperone displacement in D4-CHO cell membranes.
Details: not given
Here is the method: The compounds were characterized by their binding behaviour at the D4 receptor.
CHO cells (Chinese Hamster Ovary) were used in the test. Crude membranes were isolated by ultracentrifugation from D4 -CHO and D2 -CHO cells and were stored at -80° C. After thawing and homogenizing in a buffer solution (50 mM Tris, 1 mM EDTA, 5 mM KCl, 1.5 mM CaCl2, 4 mM MgCl2, pH 7.4) they were incubated at room temperature for 90 minutes with 200 pM [3H]-spiperone and an increasing concentration (1×10^-11 M to 1×10^-4 M) of the test compound. A non-specific binding was established by incubating in the presence of 1×10^-5 M (+)-butaclamol. The unbound radioligand was removed by filtration through a GF/C glass filter and the bound radioactivity was determined by scintillation in a Packard TopCount.
It was determined using :^3 H-spiperone. The calculation of the value was effected with ligand.
Compound `Cc1ncc(CN2CC=C(c3ccccc3)CC2)c(N)n1` [Example 14, 5-(4-Phenyl-3,6-dihydro-2H-pyridin-1-ylmethyl)-2-methyl-pyrimidin-4-ylamine] gave a Ki of 8.3 nM.

`Cc1ncc(CN2CC=C(c3ccc(F)cc3)CC2)c(N)n1` [Example 15, 5-[4-(4-Fluoro-phenyl)-3,6-dihydro-2H-pyridin-1-ylmethyl]-2-methyl-pyrimidin-4-ylamine] yielded a Ki of 9.3 nM.

On to `Cc1ncc(CN2CC=C(c3ccc(Cl)cc3)CC2)c(N)n1` [Example 16, 5-[4-(4-chloro-phenyl)-3,6-dihydro-2H-pyridin-1-ylmethyl]-2-methyl-pyrimidin-4-ylamine], for which the inhibition constant (Ki) is 4.7 nM.

`COc1ccc(C2=CCN(Cc3cnc(C)nc3N)CC2)cc1` [Example 17, 5-[4-(4-Methoxy-phenyl)-3,6-dihydro-2H-pyridin-1-ylmethyl]-2-methyl-pyrimidin-4-ylamine] showed an inhibition constant Ki of 5.4 nM.

Consider `Cc1ncc(CN2CCC3=C(CCCC3)C2)c(N)n1` [Example 24, 5-(3,4,5,6,7,8-Hexahydro-1H-isoquinolin-2-ylmethyl)-2-methyl-pyrimidin-4-ylamine], for which the inhibitory constant (Ki) was found to be 7.8 nM.

Take `Nc1ncc(CN2CC=C(c3ccccc3)CC2)c(N)n1` [Example 42, 5-(4-Phenyl-3,6-dihydro-2H-pyridin-1-ylmethyl)-pyrimidine-2,4-diamine]: affinity was put at a Ki of 14 nM.

The experiment is the same for the next values; noted with them: [3H]-spiperone 200 pM; crude membranes of D4-CHO cells; room temperature, 90 minutes, pH 7.4; non-specific binding with 1×10^-5 M (+)-butaclamol; read-out: Affinity to dopamine D4 receptors, Ki.
On to `Cc1ncc(CN2CCN(c3ccc(Cl)cc3)CC2)c(N)n1` [Example 3, 5-[4-(4-Chloro-phenyl)-piperazin-1-ylmethyl]-2-methyl-pyrimidin-4-ylamine], for which the Ki was determined as 33 nM.

In the case of `Cc1ncc(CN2CCN(c3cccc(Cl)c3)CC2)c(N)n1` [Example 7, 5-[4-(3-chloro-phenyl)-piperazin-1-ylmethyl]-2-methyl-pyrimidin-4-ylamine], the inhibition constant Ki is 28 nM.

Regarding `Cc1ncc(CN2CCc3cc(-c4ccccc4)ccc3C2)c(N)n1` [Example 19, 2-Methyl-5-(6-phenyl-3,4-dihydro-1H-isoquinolin-2-ylmethyl)-pyrimidin-4-ylamine], the Ki was 0.4 nM.

Consider `Cc1ncc(CN2CCc3ccc(-c4ccccc4)cc3C2)c(N)n1` [Example 21, 2-Methyl-5-(7-phenyl-3,4-dihydro-1H-isoquinolin-2-ylmethyl)-pyrimidin-4-ylamine], for which the Ki was 6.2 nM.

For `Cc1ncc(CN2CCc3ccc(OCc4ccccc4)cc3C2)c(N)n1` [Example 22, 5-(7-benzyloxy-3,4-dihydro-1H-isoquinolin-2-ylmethyl)-2-methyl-pyrimidin-4-ylamine], the Ki was found to be 23 nM.

Regarding `Cc1ncc(CN2CC=C(CCc3ccccc3)CC2)c(N)n1` [Example 28, 2-Methyl-5-(4-phenethyl-3,6-dihydro-2H-pyridin-1-ylmethyl)-pyrimidin-4-ylamine], the inhibition constant (Ki) came out at 1.3 nM.

Turning to `Cc1ncc(CN2CC=C(/C=C/c3ccccc3)CC2)c(N)n1` [Example 29, (E)-2-Methyl-5-(4-styryl-3,6-dihydro-2H-pyridin-1-ylmethyl)-pyrimidin-4-ylamine], the Ki was 0.9 nM.

With `CCCc1ncc(CN2CCN(c3ccccc3OC)CC2)c(N)n1` [Example 33, 5-[4-(2-Methoxy-phenyl)-piperazin-1-ylmethyl]-2-propyl-pyrimidin-4-ylamine], the Ki stood at 14 nM.

Take `COc1ccccc1N1CCN(Cc2cnc(N)nc2N)CC1` [Example 41, 5-[4-(2-Methoxy-phenyl)-piperazin-1-ylmethyl]-pyrimidine-2,4-diamine]: the Ki turned out to be 30 nM.

For the origin of these results see US5688798A, “Pyrimidine compounds” (Hoffmann-La Roche Inc., priority 1995, dated 1997).
